Assay results as given in PubChem BioAssay (NCI).
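These data come from cells grown in 96-well plates and exposed to compound for 48 hours at five concentrations. GI50 marks 50% less growth. TGI denotes the concentration required for complete inhibition of growth.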

What was measured:
Experiment in all cases: NCI tumour cell line growth inhibition, 48 h
[1] = tested on: 786-0 renal
[2] = tested on: ACHN renal
[3] = tested on: HS 578T breast
[4] = tested on: NCI-H226 lung
[5] = tested on: COLO 205 colon
[6] = tested on: U251 CNS
[7] = tested on: OVCAR-4 ovarian
[8] = tested on: CCRF-CEM leukemia
[9] = tested on: UO-31 renal
[10] = tested on: DU-145 prostate
[11] = tested on: PC-3 prostate
[12] = tested on: LOX IMVI melanoma
[13] = tested on: NCI-H23 lung
[14] = tested on: HCT-15 colon
[15] = tested on: HT29 colon
[16] = tested on: EKVX NSCLC
[17] = tested on: OVCAR-5 ovarian
[18] = tested on: NCI/ADR-RES ovarian
[19] = tested on: OVCAR-3 ovarian
[20] = tested on: MDA-MB-435
[21] = tested on: OVCAR-8 ovarian
[22] = tested on: SW-620 colon
[23] = tested on: RXF 393 renal
[24] = tested on: SK-MEL-2 melanoma
[25] = tested on: TK-10 renal
[26] = tested on: SF-539 CNS
[27] = tested on: BT-549 breast
[28] = tested on: KM12 colon
[29] = tested on: HCT-116 colon
[30] = tested on: UACC-257 melanoma
[31] = tested on: HOP-62 NSCLC
[32] = tested on: M14 melanoma
[33] = tested on: SN12C renal
[34] = tested on: IGROV1 ovarian
[35] = tested on: UACC-62 melanoma
[36] = tested on: HL-60(TB) leukemia
[37] = tested on: NCI-H522 lung
[38] = tested on: SF-295 CNS
[39] = tested on: A498 renal
[40] = tested on: SK-MEL-28 melanoma
[41] = tested on: CAKI-1 renal
[42] = tested on: MCF7 breast
[43] = tested on: SNB-19 CNS
[44] = tested on: T-47D breast
[45] = tested on: NCI-H460 lung
[46] = tested on: SNB-75 CNS
[47] = tested on: SK-MEL-5 melanoma
[48] = tested on: SK-OV-3 ovarian
[49] = tested on: SF-268 CNS
[50] = tested on: MOLT-4 leukemia
[51] = tested on: HCC-2998 colon
[52] = tested on: MALME-3M melanoma
[53] = tested on: A549 NSCLC
[54] = tested on: RPMI-8226 leukemia
[55] = tested on: K-562 leukemia
[56] = tested on: MDA-MB-231 breast
[57] = tested on: HOP-92 NSCLC

Compound `N/C(=N\c1nc2ccccc2s1)NC(=NC1CCCCC1)NC1CCCCC1` has a GI50 [1] of 1.65 µM, a TGI [1] of 3.23 µM and a GI50 [2] of 1.6 µM. It also gave a TGI [2] of 2.96 µM, a GI50 [3] of 1.77 µM and a TGI [3] of 3.89 µM. It also gave a GI50 [4] of 1.67 µM, a TGI [4] of 3.23 µM and a GI50 [5] of 1.7 µM. For the same compound, the TGI [5] was 3.6 µM, the GI50 [6] was 1.68 µM and the TGI [6] was 3.48 µM. For the same compound, the GI50 [7] was 1.63 µM, the TGI [7] was 3.29 µM and the GI50 [8] was 2.46 µM. For the same compound, the TGI [8] was 9.28 µM, the GI50 [9] was 1.27 µM and the TGI [9] was 2.55 µM. It also gave a GI50 [10] of 1.78 µM, a TGI [10] of 3.34 µM and a GI50 [11] of 1.52 µM. The TGI [11] was 3.33 µM, the GI50 [12] was 1.61 µM and the TGI [12] was 2.99 µM. The GI50 [13] was 1.75 µM, the TGI [13] was 3.38 µM and the GI50 [14] was 1.47 µM. The TGI [14] was 2.93 µM, the GI50 [15] was 1.63 µM and the TGI [15] was 3.66 µM. The GI50 [16] was 1.51 µM, the TGI [16] was 2.93 µM and the GI50 [17] was 1.62 µM. For the same compound, the TGI [17] was 3.07 µM, the GI50 [18] was 1.64 µM and the TGI [18] was 3.3 µM. It also gave a GI50 [19] of 1.68 µM, a TGI [19] of 3.17 µM and a GI50 [20] of 1.44 µM. It also gave a TGI [20] of 2.8 µM, a GI50 [21] of 1.97 µM and a TGI [21] of 4.98 µM. It also gave a GI50 [22] of 1.65 µM, a TGI [22] of 3.33 µM and a GI50 [23] of 1.46 µM. The TGI [23] was 2.86 µM, the GI50 [24] was 1.78 µM and the TGI [24] was 3.47 µM. It also gave a GI50 [25] of 1.64 µM, a TGI [25] of 3.28 µM and a GI50 [26] of 1.66 µM. The TGI [26] was 3.12 µM, the GI50 [27] was 1.65 µM and the TGI [27] was 3.22 µM. For the same compound, the GI50 [28] was 1.94 µM, the TGI [28] was 3.78 µM and the GI50 [29] was 1.43 µM. It also gave a TGI [29] of 3.01 µM, a GI50 [30] of 1.76 µM and a TGI [30] of 3.65 µM. For the same compound, the GI50 [31] was 1.78 µM, the TGI [31] was 3.99 µM and the GI50 [32] was 1.63 µM. For the same compound, the TGI [32] was 3.31 µM, the GI50 [33] was 1.61 µM and the TGI [33] was 3.11 µM. It also gave a GI50 [34] of 1.46 µM, a TGI [34] of 2.95 µM and a GI50 [35] of 1.61 µM. For the same compound, the TGI [35] was 3.01 µM, the GI50 [36] was 1.83 µM and the TGI [36] was 4.35 µM. For the same compound, the GI50 [37] was 1.89 µM, the TGI [37] was 4.22 µM and the GI50 [38] was 1.64 µM. For the same compound, the TGI [38] was 3.03 µM, the GI50 [39] was 1.71 µM and the TGI [39] was 3.11 µM. For the same compound, the GI50 [40] was 1.75 µM, the TGI [40] was 3.24 µM and the GI50 [41] was 1.53 µM. It also gave a TGI [41] of 2.89 µM, a GI50 [42] of 1.46 µM and a TGI [42] of 2.83 µM. It also gave a GI50 [43] of 1.59 µM, a TGI [43] of 3.02 µM and a GI50 [44] of 1.84 µM. For the same compound, the TGI [44] was 4.15 µM, the GI50 [45] was 1.77 µM and the TGI [45] was 3.43 µM. The GI50 [46] was 1.33 µM, the TGI [46] was 2.62 µM and the GI50 [47] was 1.8 µM. For the same compound, the TGI [47] was 3.21 µM, the GI50 [48] was 1.84 µM and the TGI [48] was 3.53 µM. The GI50 [49] was 1.81 µM, the TGI [49] was 3.65 µM and the GI50 [50] was 1.98 µM. It also gave a TGI [50] of 5.45 µM, a GI50 [51] of 1.58 µM and a TGI [51] of 2.98 µM. It also gave a GI50 [52] of 1.52 µM and a TGI [52] of 3.13 µM.
In the case of `CC1=C(C(=O)Nc2ccc(F)c(Cl)c2)C(c2ccccc2O)NC(=O)N1` (centres undefined), the GI50 [1] is reported as > 100 µM, the TGI [1] is reported as > 100 µM and the GI50 [53] is reported as > 100 µM. The TGI [53] was > 100 µM, the GI50 [2] was > 100 µM and the TGI [2] was > 100 µM. For the same compound, the GI50 [3] was 76.3 µM, the TGI [3] was > 100 µM and the GI50 [4] was > 100 µM. For the same compound, the TGI [4] was > 100 µM, the GI50 [5] was > 100 µM and the TGI [5] was > 100 µM. The GI50 [6] was > 100 µM, the TGI [6] was > 100 µM and the GI50 [7] was 12.2 µM. The TGI [7] was 68.6 µM, the GI50 [8] was 59.9 µM and the TGI [8] was > 100 µM. The GI50 [9] was 80.7 µM, the TGI [9] was > 100 µM and the GI50 [10] was > 100 µM. The TGI [10] was > 100 µM, the GI50 [11] was 58.8 µM and the TGI [11] was > 100 µM. For the same compound, the GI50 [12] was 80.5 µM, the TGI [12] was > 100 µM and the GI50 [13] was > 100 µM. For the same compound, the TGI [13] was > 100 µM, the GI50 [14] was > 100 µM and the TGI [14] was > 100 µM. For the same compound, the GI50 [15] was 41.4 µM, the TGI [15] was > 100 µM and the GI50 [16] was > 100 µM. For the same compound, the TGI [16] was > 100 µM, the GI50 [17] was > 100 µM and the TGI [17] was > 100 µM. The GI50 [18] was > 100 µM, the TGI [18] was > 100 µM and the GI50 [19] was 65.4 µM. The TGI [19] was > 100 µM, the GI50 [20] was > 100 µM and the TGI [20] was > 100 µM. The GI50 [21] was > 100 µM, the TGI [21] was > 100 µM and the GI50 [22] was > 100 µM. For the same compound, the TGI [22] was > 100 µM, the GI50 [23] was > 100 µM and the TGI [23] was > 100 µM. The GI50 [24] was > 100 µM, the TGI [24] was > 100 µM and the GI50 [25] was 32.4 µM. The TGI [25] was 67.9 µM, the GI50 [26] was > 100 µM and the TGI [26] was > 100 µM. For the same compound, the GI50 [27] was 71.5 µM, the TGI [27] was > 100 µM and the GI50 [28] was 70.9 µM. For the same compound, the TGI [28] was > 100 µM, the GI50 [29] was 51.7 µM and the TGI [29] was > 100 µM. For the same compound, the GI50 [54] was 46.1 µM, the TGI [54] was > 100 µM and the GI50 [30] was > 100 µM. For the same compound, the TGI [30] was > 100 µM, the GI50 [31] was > 100 µM and the TGI [31] was > 100 µM. For the same compound, the GI50 [32] was 69.9 µM, the TGI [32] was > 100 µM and the GI50 [33] was > 100 µM. For the same compound, the TGI [33] was > 100 µM, the GI50 [34] was 50.2 µM and the TGI [34] was > 100 µM. For the same compound, the GI50 [35] was 49 µM, the TGI [35] was > 100 µM and the GI50 [55] was 58.1 µM. The TGI [55] was > 100 µM, the GI50 [36] was 59.6 µM and the TGI [36] was > 100 µM. For the same compound, the GI50 [56] was 27.4 µM, the TGI [56] was > 100 µM and the GI50 [37] was 61.9 µM. The TGI [37] was > 100 µM, the GI50 [38] was 94.5 µM and the TGI [38] was > 100 µM. The GI50 [39] was > 100 µM, the TGI [39] was > 100 µM and the GI50 [40] was 79.7 µM. For the same compound, the TGI [40] was > 100 µM, the GI50 [41] was > 100 µM and the TGI [41] was > 100 µM. The GI50 [42] was 70.5 µM, the TGI [42] was > 100 µM and the GI50 [43] was > 100 µM. The TGI [43] was > 100 µM, the GI50 [57] was 81.6 µM and the TGI [57] was > 100 µM. For the same compound, the GI50 [44] was 42.4 µM, the TGI [44] was > 100 µM and the GI50 [45] was 96.6 µM. For the same compound, the TGI [45] was > 100 µM, the GI50 [46] was 40 µM and the TGI [46] was > 100 µM. For the same compound, the GI50 [47] was 41.2 µM, the TGI [47] was > 100 µM and the GI50 [48] was > 100 µM. For the same compound, the TGI [48] was > 100 µM, the GI50 [49] was > 100 µM and the TGI [49] was > 100 µM. The GI50 [51] was > 100 µM and the TGI [51] was > 100 µM.
